Consider 46 molecules from US7208505B2, “β3 adrenergic agonists” (Eli Lilly and Company, priority 2001, dated 2007).

SMILES strings stand for the structures. A value given as a limit tells only on which side of the number the result lay.

T1 sequence (P13945 whole entry): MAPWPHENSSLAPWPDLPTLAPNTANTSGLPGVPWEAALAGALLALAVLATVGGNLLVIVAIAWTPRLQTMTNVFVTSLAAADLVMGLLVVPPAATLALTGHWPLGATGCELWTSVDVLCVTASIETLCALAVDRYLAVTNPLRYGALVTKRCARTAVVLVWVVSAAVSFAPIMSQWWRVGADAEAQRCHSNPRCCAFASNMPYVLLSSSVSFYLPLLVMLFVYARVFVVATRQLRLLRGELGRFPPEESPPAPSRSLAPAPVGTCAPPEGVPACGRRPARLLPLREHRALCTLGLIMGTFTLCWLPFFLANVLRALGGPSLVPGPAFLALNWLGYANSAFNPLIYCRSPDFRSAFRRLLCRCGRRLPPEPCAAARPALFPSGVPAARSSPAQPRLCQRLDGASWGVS

One assay has as its target T1, human β3 adrenergic receptor (Homo sapiens, UniProt P13945).
T1 construct: expressed in transfected cells
Put plainly: whole cell receptor coupled c-AMP assay (Emax relative to isoproterenol). Format: cell-based. To be noted: % intrinsic activity relative to isoproterenol; transfected CHO cells. The method, boiled down: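 Stably transfected CHO DXB-11 cells expressing human β3 receptor incubated 20 min at 37 °C with compound in HBSS/HEPES pH 7.4 containing 1 mM IBMX. cAMP measured by SPA; four-parameter logistic fit, Emax = maximal response as % of isoproterenol maximum.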
In turn, `C[C@@H](Cc1c[nH]c2c(F)cc(F)cc12)NC[C@H](O)COc1ccccc1-c1cccs1` [Example 194] returned an Emax of 25.6%.

The molecule `CC(Cc1c[nH]c2c(OCC#N)cccc12)NC[C@H](O)COc1ccccc1-c1ccno1` (stereo partly shown) [Example 199] gave an Emax of 22.8%.

The same assay, now with this note: % intrinsic activity: maximal response divided by isoproterenol maximal response times 100; transfected CHO cells; average of at least 3 runs.
For `CC(Cc1cn(C)c2c(F)cc(F)cc12)NCC(O)COc1ccccc1-c1cccs1` (stereo not shown) [Example 197], the “Emax (%) ± SEM” value is given as 34.5 ± 4.2%.

Regarding `CC(C)(Cc1c[nH]c2c(OCC(=O)O)cccc12)NC[C@H](O)COc1ccccc1-c1cccs1` [Example 224], the “Emax (%) ± SEM” value came out at 94.3 ± 4.6%.

Regarding `CC(C)(Cc1c[nH]c2c(OCC(=O)[O-])cccc12)NC[C@H](O)COc1ccccc1-c1cccs1.[Na+]` [Example 225], the “Emax (%) ± SEM” value worked out at 78.1 ± 4.6%.

With `CC(C)(Cc1c[nH]c2c(OCC(=O)O)cccc12)NC[C@H](O)COc1ccccc1-c1cccs1.Cl` [Example 226], the “Emax (%) ± SEM” value turned out to be 70.3 ± 5.7%.

Staying with this assay, now noted: CHO, % intrinsic activity relative to isoproterenol; transfected CHO cells.
Molecule `C[C@@H](CN1CCc2cc(F)c(Cl)cc21)NC[C@H](O)COc1ccccc1-c1cccs1` [Example 195] showed an Emax of 8.9%.

In the case of `CC(C)(Cc1c[nH]c2c(OCC#N)cccc12)NC[C@H](O)COc1ccccc1-c1ccc(C#N)s1` [Example 202], the Emax stood at 85%.

`CC(C)(Cc1c[nH]c2c(OCC(=O)O)cccc12)NC[C@H](O)COc1ccccc1-n1cccc1` [Example 203]: the Emax turned out to be 73.8%.

`CC(C)(Cc1c[nH]c2cc(C(=O)O)ccc12)NC[C@H](O)COc1ccccc1-c1nccs1` [Example 204] displayed an Emax of 67%.

Staying with this assay, now noted: CHO, % intrinsic activity: maximal response divided by isoproterenol maximal response times 100; transfected CHO cells; average of at least 3 runs.
Consider `CC(C)(CC1=CCc2c(Oc3ccc(C(N)=O)cn3)cccc21)NC[C@H](O)COc1ccccc1-c1cccs1` [Example 219], for which the Emax was found to be 85.9 ± 9.4%.

In turn, `CC(C)(Cc1c[nH]c2c(CCc3ccc(C(N)=O)cc3)cccc12)NC[C@H](O)COc1ccccc1-c1cccs1` [Example 220] yielded an Emax of 81.2 ± 0.6%.

Molecule `CC(C)(Cc1c[nH]c2ccccc12)NC[C@H](O)COc1ccccc1-c1ccc(C(=O)O)s1` [Example 221] had an Emax of 74.6 ± 3.6%.

With `CC(C)(Cc1c[nH]c2c(CCn3cncn3)cccc12)NC[C@H](O)COc1ccccc1-c1cccs1` [Example 222], the Emax was 81.2 ± 0.9%.

In turn, `CC(C)(Cc1c[nH]c2c(OCC(=O)O)cccc12)NC[C@H](O)COc1ccccc1-c1ccon1` [Example 223] displayed an Emax of 56.1 ± 2.8%.

Molecule `CC(C)(Cc1c[nH]c2c(/C=C/C(=O)O)cccc12)NC[C@H](O)COc1ccccc1-c1cccs1` [Example 227] gave an Emax of 87.5 ± 7.5%.

In turn, `CC(C)(Cc1c[nH]c2c(CCC(=O)O)cccc12)NC[C@H](O)COc1ccccc1-c1cccs1` [Example 228] yielded an Emax of 79.5 ± 0.6%.

For the molecule `CC(C)(Cc1c[nH]c2c(OCc3nnn[nH]3)cccc12)NC[C@H](O)COc1ccccc1-c1cccs1` [Example 229], the Emax stood at 83 ± 2.5%.

For the molecule `CC(C)(Cc1c[nH]c2c(/C=C/c3nnn[nH]3)cccc12)NC[C@H](O)COc1ccccc1-c1cccs1` [Example 230], the Emax is 81.3 ± 2.4%.

`CC(C)(Cc1c[nH]c2c(OCC3=NCCS3)cccc12)NC[C@H](O)COc1ccccc1-c1cccs1` [Example 231]: the Emax worked out at 85 ± 4.9%.

Regarding `CC(C)(Cc1c[nH]c2c(CCc3nnn[nH]3)cccc12)NC[C@H](O)COc1ccccc1-c1cccs1` [Example 232], the Emax turned out to be 79.5 ± 1.7%.

As for `CC(C)(Cc1c[nH]c2c(OCC(=O)O)cccc12)NC[C@H](O)COc1ccccc1-c1ccno1` [Example 233], the Emax is 52.4 ± 6%.

`CC(C)(Cc1c[nH]c2c(OCC(=O)O)cccc12)NC[C@H](O)COc1ccccc1-c1nccs1` [Example 234]: the maximal response (Emax) turned out to be 66.4 ± 6.4%.

In the case of `C[C@H](Cn1ccc2c(OCC(=O)O)cccc21)NC[C@H](O)COc1ccccc1-c1ccns1` [Example 235], the Emax was found to be 76.7 ± 4.4%.

In the case of `CC(C)(Cc1c[nH]c2cc(OCC(=O)O)ccc12)NC[C@H](O)COc1ccccc1-c1cccs1` [Example 236], the Emax was determined as 88.4 ± 3.9%.

Molecule `CC(C)(Cc1c[nH]c2ccc(OCC(=O)O)cc12)NC[C@H](O)COc1ccccc1-c1cccs1` [Example 237] had an Emax of 73.9 ± 2.9%.

`CC(C)(Cc1c[nH]c2cccc(C(=O)O)c12)NC[C@H](O)COc1ccccc1-c1cccs1` [Example 238] had an Emax of under 10%.

Take `CC(C)(Cc1c[nH]c2ccc(C(=O)O)cc12)NC[C@H](O)COc1ccccc1-c1cccs1` [Example 239]: the Emax was 69.6 ± 3.5%.

`CC(C)(Cc1c[nH]c2cc(C(=O)O)ccc12)NC[C@H](O)COc1ccccc1-c1cccs1` [Example 240] came in with an Emax of 78.7 ± 2.4%.

For `CC(C)(Cc1c[nH]c2c(C(=O)O)cccc12)NC[C@H](O)COc1ccccc1-c1cccs1` [Example 241], the Emax was 70.1 ± 0.6%.

Turning to `C[C@H](Cn1ccc2c(C(=O)O)cccc21)NC[C@H](O)COc1ccccc1-c1cccs1` [Example 242], the Emax is 59.6 ± 2.8%.

On to `C[C@H](Cn1ccc2cc(C(=O)O)ccc21)NC[C@H](O)COc1ccccc1-c1cccs1` [Example 243], for which the Emax is 48.4 ± 2.5%.

As for `CC(C)(Cc1c[nH]c2c(Oc3ccc(C(=O)O)cn3)cccc12)NC[C@H](O)COc1ccccc1-c1ccon1` [Example 244], the Emax was determined as 77 ± 2.1%.

Turning to `CC(C)(Cc1c[nH]c2c(Oc3ccc(C(N)=O)cn3)cccc12)NC[C@H](O)COc1ccccc1-c1ccon1` [Example 245], the Emax came to 63.3 ± 3%.

As to `CC(C)(Cc1c[nH]c2c(-c3ccc(C(=O)O)cc3)cccc12)NC[C@H](O)COc1ccccc1-c1cccs1` [Example 246], the Emax came out at 79.2 ± 3.4%.

Consider `CC(C)(Cc1c[nH]c2c(-c3ccc(C(=O)O)cc3)cccc12)NC[C@H](O)COc1ccccc1-c1ccon1` [Example 247], for which the Emax was determined as 54.6 ± 2.4%.

In turn, `CC(C)(Cc1c[nH]c2c(-c3cccc(C(=O)O)c3)cccc12)NC[C@H](O)COc1ccccc1-c1cccs1` [Example 248] yielded an Emax of 84.1 ± 1.8%.

The molecule `CC(C)(Cc1c[nH]c2c(-c3cccc(C(=O)O)c3)cccc12)NC[C@H](O)COc1ccccc1-c1ccon1` [Example 249] gave a maximal effect (Emax) of 68.8 ± 7.8%.

`CC(C)(Cc1c[nH]c2c(-c3ccc(C(=O)O)s3)cccc12)NC[C@H](O)COc1ccccc1-c1cccs1` [Example 250]: the Emax was 92.5 ± 5.1%.

Turning to `CC(C)(Cc1c[nH]c2c(CCc3ccc(-c4nnn[nH]4)cc3)cccc12)NC[C@H](O)COc1ccccc1-c1cccs1` [Example 251], the Emax came to 86.3 ± 3.4%.

For `CC(C)(Cc1c[nH]c2cc(/C=C/c3nnn[nH]3)ccc12)NC[C@H](O)COc1ccccc1-c1cccs1` [Example 252], the Emax was determined as 82.3 ± 4%.

Molecule `CC(C)(Cc1c[nH]c2c(CCc3cnccn3)cccc12)NC[C@H](O)COc1ccccc1-c1cccs1` [Example 253] displayed an Emax of 81.6 ± 4%.

As for `CC(C)(Cc1c[nH]c2c(CCc3ccc(S(N)(=O)=O)cc3)cccc12)NC[C@H](O)COc1ccccc1-c1cccs1` [Example 254], the Emax is 80.9 ± 4.9%.

On to `CC(C)(Cc1c[nH]c2cc(CCc3nnn[nH]3)ccc12)NC[C@H](O)COc1ccccc1-c1cccs1` [Example 255], for which the Emax came to 83.9 ± 3.2%.

As to `CC(C)(Cc1c[nH]c2c(OCC#N)cccc12)NC[C@H](O)COc1ccccc1-n1cccc1` [Example 256], the Emax was 71.4 ± 2.7%.

Turning to `CC(C)(Cc1c[nH]c2cccc(C(N)=O)c12)NC[C@H](O)COc1ccccc1-c1cccs1` [Example 257], the Emax came to 81.8 ± 8.5%.
